Measurements: publication PMC6269309 (Haematologica, 2018)
Where two headings read alike, the source gives them in different places.

What was measured:
[1] = tested on: Ca2+ mobilization in platelets; test: Measurement of [Ca2+]i in Fura-2-loaded platelets stimulated with CRP; type: cell-based, human
[2] = tested on: PLCγ2 pY753, pY759, pY1217; test: Protein phosphorylation, western blot of CRP-stimulated washed platelets: PLCγ2; type: cell-based, human
PLCγ2 pY1217 = test: Ex vivo PLCγ2 pY1217 phosphorylation in washed platelets of treated patients; design: species or system human; details: CLL patients, ibrutinib 420 mg once daily or acalabrutinib 100 mg twice daily
[3] = tested on: platelet aggregation induced by ADP and PAR1 peptide; type: in vivo, human; details: patients taking either inhibitor, data not shown
[4] = tested on: NFAT signaling in DT40 cells; type: cell-based, chicken; details: collagen 10 μg/mL, no serum
Btk pY551 = type: cell-based, human
[5] = tested on: GPVI-mediated platelet aggregation (washed platelets, CRP); test: Light transmission aggregometry, washed platelets stimulated with CRP; type: cell-based, human
Src pY418 = type: cell-based, human
Btk pY223 [6] = type: cell-based, human
[7] = tested on: GPVI-induced platelet aggregation; type: in vivo, human; details: CLL patients, ibrutinib 420 mg once daily or acalabrutinib 100 mg twice daily, PRP, 2-3 h after dose, CRP 10 μg/mL
SLP-76 pY145 = type: cell-based, human
[8] = cited from earlier work
Btk [9] = details: doses of 2.5 mg/kg; cited from earlier work
Syk pY525/6 = type: cell-based, human
[10] = tested on: whole cell tyrosine phosphorylation; test: Whole cell tyrosine phosphorylation in CRP-stimulated washed platelets; type: cell-based, human
LAT pY200 = type: cell-based, human
[11] = tested on: ATP secretion of washed platelets; test: Granule release; type: cell-based, human
Tec = Tec phosphorylation, immunoprecipitation and blotting with 4G10; type: cell-based, human; details: washed platelets 8x10^8/mL, CRP 10 μg/mL 180 s
[12] = cited from earlier work; remark: listed apart in the source
[13] = cited from earlier work; remark: listed apart in the source
Btk pY223 [14] = details: CLL patients, ibrutinib 420 mg once daily or acalabrutinib 100 mg twice daily
Btk [15] = details: cited from earlier work
[16] = higher concentrations, up to 200 μM

Which results are given for `C=CC(=O)N1CCC[C@@H](n2nc(-c3ccc(Oc4ccccc4)cc3)c3c(N)ncnc32)C1` [ibrutinib]?
Peak Ca2+ concentration after a high concentration of CRP ([1]; 70 nM): not altered; Peak Ca2+ concentration after a high concentration of CRP ([1]; 700 nM): markedly reduced; Phosphorylation of downstream PLCγ2 ([2]; 70 nM, CRP 10 μg/mL): reduced to basal levels; Reversibility of inhibition of PLCγ2 pY753 and pY1217 ([2]; two washing steps before CRP): irreversible; Phosphorylation of PLCγ2 pY1217 ex vivo (PLCγ2 pY1217): complete inhibition; Platelet aggregation induced by ADP and PAR1 peptide ex vivo [3]: not altered; NFAT signaling, WT and KD Btk transfected cells ([4]; high dose (range 0.5-10 μM)): blocked NFAT signaling; NFAT signaling, cells transfected with WT or KD Btk ([4]; low dose (range 0.5-10 μM)): had no effect; Phosphorylation of Btk on Y551 (Btk pY551; 70 nM, CRP 10 μg/mL): not altered; Dose at which inhibition of Btk Y551 phosphorylation was seen (Btk pY551; CRP 10 μg/mL): 7 µM; Response to a sub-maximal concentration of CRP ([5]; 70 nM): reduced response; Aggregation in response to a high concentration of CRP ([5]; 70 nM, incubation ≥5 min, CRP 10 μg/mL): time-dependent delay in aggregation; Aggregation in response to a high dose of CRP ([5]; 700 nM, incubation ≥30 s, CRP 10 μg/mL): block aggregation; Phosphorylation of Src Y418 (Src pY418; 70 nM, CRP 10 μg/mL): not altered; Reversibility of inhibition of Src pY418 (Src pY418; two washing steps before CRP): reversible; Autophosphorylation of Btk (Btk pY223 [6]; 70 nM, CRP 10 μg/mL): reduced to basal levels; Reversibility of inhibition of Btk pY223 autophosphorylation (Btk pY223 [6]; two washing steps before CRP): irreversible; GPVI-induced platelet aggregation ex vivo [7]: blocked; Phosphorylation of SLP-76 Y145 (SLP-76 pY145; 70 nM, CRP 10 μg/mL): not altered; Dose at which inhibition of SLP-76 Y145 phosphorylation was seen (SLP-76 pY145; CRP 10 μg/mL): 7 µM; Bound to plasma proteins [8]: 97%; Btk occupancy (Btk [9]): > 95%; Phosphorylation of Syk Y525/6 (Syk pY525/6; 70 nM, CRP 10 μg/mL): not altered; Dose at which inhibition of Syk Y525/6 phosphorylation was seen (Syk pY525/6; CRP 10 μg/mL): 7 µM; Dose at which inhibition of whole cell phosphorylation was seen ([10]; CRP 10 μg/mL): 7 µM; Reversibility of inhibition of global tyrosine phosphorylation ([10]; two washing steps before CRP): reversible on washout; Phosphorylation of LAT Y200 (LAT pY200; 70 nM, CRP 10 μg/mL): not altered; Dose at which inhibition of LAT Y200 phosphorylation was seen (LAT pY200; CRP 10 μg/mL): 7 µM; ATP secretion in response to a high concentration of CRP ([11]; 70 nM): no effect; ATP secretion in response to a high concentration of CRP ([11]; 700 nM): blocked; Concentration giving full blockade of Tec phosphorylation (Tec): 7 µM; Concentration giving partial blockade of Tec phosphorylation (Tec): 170 nM; Initial half-life [12]: 2 to 3 h; Terminal half-life [12]: 4 to 8 h

With `CC#CC(=O)N1CCC[C@H]1c1nc(-c2ccc(C(=O)Nc3ccccn3)cc2)c2c(N)nccn12` [acalabrutinib] as the compound, how does the “Major hemorrhage in treated patients” value [13] read?
The value was “not seen”.

And the “Tyrosine phosphorylation of PLCγ2 on Y759 and Y1217” value ([2]; 2 μM, CRP 10 μg/mL)?
The value was “blocked”.

And the “Phosphorylation of PLCγ2 pY1217 ex vivo” value (PLCγ2 pY1217)?
Its value is “complete inhibition”.

And the “Platelet aggregation induced by ADP and PAR1 peptide ex vivo” value [3]?
Its value is “not altered”.

And the “Phosphorylation of Btk Y551” value (Btk pY551; [16])?
The value was “small reduction”.

And the Onset of aggregation ([5]; 2 μM, CRP)?
Its Onset of aggregation is “slight delay in aggregation”.

And the “Overall magnitude of aggregation response” value ([5]; 2 μM, CRP)?
Its value is “no effect”.

What about the “Phosphorylation of Src Y418” value (Src pY418; [16]) of the same compound?
Its value is “had no effect”.

What about the “Autophosphorylation of Btk pY223 ex vivo” value (Btk pY223 [14]) of the same compound?
Its value is “complete inhibition”.

And the “Tyrosine phosphorylation of Btk on Y223” value (Btk pY223 [6]; 2 μM, CRP 10 μg/mL)?
Its value is “blocked”.

And the “GPVI-induced platelet aggregation ex vivo” value [7]?
Its value is “not blocked”.

What about the “Phosphorylation of SLP-76 Y145” value (SLP-76 pY145; [16]) of the same compound?
The value was “small reduction”.

And the “IC50 for Btk relative to ibrutinib (lower)” value (Btk [15])?
Its value is 5 fold.

And the “Potency as an inhibitor of Btk relative to ibrutinib (lower)” value (Btk [15])?
The value was 5 fold.

And the “Phosphorylation of Syk Y525/6” value (Syk pY525/6; [16])?
The value was “had no effect”.

What about the “Phosphorylation of LAT Y200” value (LAT pY200; [16]) of the same compound?
The value was “had no effect”.

And the “Concentration giving full blockade of Tec phosphorylation” value (Tec)?
The value was 200 µM.

And the “Concentration giving partial inhibition of Tec phosphorylation” value (Tec)?
The value was “approximately 1 μM”.

What about the Half-life [12] of the same compound?
Its Half-life is 1 h.

What about the “Mean peak free drug concentration in patients” value ([12]; patients) of the same compound?
Its value is 1.3 µM.
